According to article PMC4826920 (Evidence-based Complementary and Alternative Medicine : eCAM, 2016):

How the values were obtained:
[1] = biological target: T1, hMAO-B (Homo sapiens, UniProt P27338); assay: Michaelis-Menten kinetics (mode of inhibition), hMAO-B; assay type: biochemical
T1 construct: purchased Sigma-Aldrich
T1 sequence (P27338 1-520): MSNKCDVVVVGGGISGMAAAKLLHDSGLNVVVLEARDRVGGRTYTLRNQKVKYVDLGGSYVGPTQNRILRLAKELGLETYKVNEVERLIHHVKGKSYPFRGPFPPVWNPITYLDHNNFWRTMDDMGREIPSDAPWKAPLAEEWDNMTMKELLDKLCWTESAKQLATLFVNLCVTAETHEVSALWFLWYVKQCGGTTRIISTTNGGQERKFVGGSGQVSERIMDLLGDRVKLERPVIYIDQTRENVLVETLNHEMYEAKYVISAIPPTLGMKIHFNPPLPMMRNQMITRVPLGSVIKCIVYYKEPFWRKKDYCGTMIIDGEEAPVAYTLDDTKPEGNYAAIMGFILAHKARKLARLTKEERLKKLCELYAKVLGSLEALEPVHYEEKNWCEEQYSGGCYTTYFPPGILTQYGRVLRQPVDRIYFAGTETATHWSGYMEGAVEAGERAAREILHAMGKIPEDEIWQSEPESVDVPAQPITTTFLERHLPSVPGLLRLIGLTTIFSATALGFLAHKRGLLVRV
Method: (§1) After 1.5 h of incubation, RLDR was added, and the luminescence signal was detected as mentioned in the hMAO-A and hMAO-B assay.
(§2) IC50 values were determined by nonlinear regression best-fit model of normalized response with variable slope. The inhibitor constant (K i) values were obtained from the competitive inhibition model. Lineweaver-Burk plot was obtained from Michaelis-Menten data. Relative selectivity (RS) folds were defined by the ratio of hMAO-A IC50 to hMAO-B IC50. The significance of the difference between two groups was determined using an unpaired t-test, between the control and treatments using one-way ANOVA followed by Dunnett's multiple comparisons tests and between two sets of data using two-way ANOVA followed by Sidak's multiple comparisons test.

[2] = biological target: T2, hMAO-A (Homo sapiens, UniProt P21397); assay: Recovery by dilution assay, hMAO-A; assay type: biochemical
T2 construct: purchased Sigma-Aldrich
T2 sequence (P21397 1-527): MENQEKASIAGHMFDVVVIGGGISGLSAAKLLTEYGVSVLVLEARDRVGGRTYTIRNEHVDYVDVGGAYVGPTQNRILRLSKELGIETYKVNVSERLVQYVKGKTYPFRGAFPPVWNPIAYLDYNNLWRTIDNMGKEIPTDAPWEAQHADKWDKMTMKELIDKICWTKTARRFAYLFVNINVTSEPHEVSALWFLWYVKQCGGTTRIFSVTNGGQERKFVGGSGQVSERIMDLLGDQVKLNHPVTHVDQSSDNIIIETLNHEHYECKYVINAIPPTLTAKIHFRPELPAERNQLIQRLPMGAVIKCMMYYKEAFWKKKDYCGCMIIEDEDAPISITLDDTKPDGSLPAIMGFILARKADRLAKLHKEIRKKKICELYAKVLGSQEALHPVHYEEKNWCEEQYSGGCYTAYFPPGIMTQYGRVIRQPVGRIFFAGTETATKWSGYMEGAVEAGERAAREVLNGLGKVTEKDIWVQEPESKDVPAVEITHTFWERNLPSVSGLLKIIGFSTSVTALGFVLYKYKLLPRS
Method: (§3) The microplates were then incubated for 30, 40, 50, and 60 min. RLDR was added, and luminescence was measured as mentioned above.

[3] = biological target: T1, hMAO-B; assay: Recovery by dilution assay, hMAO-B; assay type: biochemical
Method: as §3

[4] = oral 54 mg/day, postmenopausal women; cited from earlier work
[5] = biological target: T2, hMAO-A; assay: Michaelis-Menten kinetics (mode of inhibition), hMAO-A; assay type: biochemical
Method: as §1
as §2, with “All analyses were performed by GraphPad Prism Software 6.02 (San Diego, CA, USA). IC50 values” for “IC50 values”

[6] = biological target: T3, recombinant human MAO-B (hMAO-B) (Homo sapiens, UniProt P27338); assay: MAO-Glow luminescence assay, hMAO-B inhibition; assay type: biochemical
T3 construct: purchased Sigma-Aldrich
T3 sequence (P27338 1-520): T1 sequence (P27338 1-520)
Method: as §2

[7] = system: bovine plasma MAO; parameters: method as in PMID 1913999; conditions: cited from earlier work
[8] = system: rat MAO; conditions: cited from earlier work
[9] = biological target: T4, recombinant human MAO-A (hMAO-A) (Homo sapiens, UniProt P21397); assay: MAO-Glow luminescence assay, hMAO-A inhibition; assay type: biochemical; conditions: up to 250 μM tested
T4 construct: purchased Sigma-Aldrich
T4 sequence (P21397 1-527): T2 sequence (P21397 1-527)
Method: as §2, with “All analyses were performed by GraphPad Prism Software 6.02 (San Diego, CA, USA). IC50 values” for “IC50 values”

[10] = 40 min preincubation at 10x IC50, 100-fold dilution, vs negative control
[11] = 40 min preincubation at 100x IC50, 100-fold dilution, vs negative control
[12] = up to 60 min at RT, maximum 100x IC50

| SMILES | Change in Vmax, hMAO-B ([1]; GST 5, 10, 20 μM, p = 0.44) | Mode of hMAO-B inhibition ([1]; Lineweaver-Burk, LDS substrate) | hMAO-B Ki lower than hMAO-A Ki ([1]; ratio of Ki values) | hMAO-A residual catalytic rate after dilution to 0.1x IC50 [2, 10] | hMAO-A residual catalytic rate after dilution to 1x IC50 [2, 11] | Reversibility of hMAO-A inhibition [2, 12] | hMAO-B residual catalytic rate after dilution to 0.1x IC50 [3, 10] | hMAO-B residual catalytic rate after dilution to 1x IC50 [3, 11] | Reversibility of hMAO-B inhibition [3, 12] | Steady-state level [4] | Change in Vmax, hMAO-A ([5]; GST 5, 10, 20 μM, p = 0.10) | Mode of hMAO-A inhibition ([5]; Lineweaver-Burk, LDS substrate) | hMAO-B potency as % of DEP potency ([6]; from IC50 values) | Bovine plasma MAO inhibition [7] | Rat MAO inhibition [8] | hMAO-A inhibitory effect [9] | hMAO-B inhibitory effect ([6]; up to 250 μM tested) |
| --- | --- | --- | --- | --- | --- | --- | --- | --- | --- | --- | --- | --- | --- | --- | --- | --- | --- |
| O=c1c(-c2ccc(O)cc2)coc2cc(O)cc(O)c12 [GST, Genistein] | no significant change | competitive | 3.0 fold | 86.8% | 42.3% | reversible inhibitor | 86.1% | 47.1% | reversible inhibitor | up to 1.00 μM | no significant change | competitive | 1.4% | weak bovine plasma MAO inhibition | – | – | – |
| O=c1c(-c2ccc(O)cc2)coc2cc(O)ccc12 [DZ, Daidzein] | – | – | – | – | – | – | – | – | – | – | – | – | – | – | no significant rat MAO inhibition | minor or partial inhibitory effect | minor or partial inhibitory effect |
